Measured values as given in PMC10031046, “Competition between FLS and DFR regulates the distribution of flavonols and proanthocyanidins in Rubus chingii Hu” (Frontiers in Plant Science, 2023).

What was measured:
RcFLS1 = tested on: T1, RcFLS1; assay: HPLC product assay, Michaelis-Menten fit; type: biochemical, Rubus chingii; details: 100 mM Tris-HCl pH 7.5, 10 mM ascorbate, 10 μM FeSO4, 10 mM 2-oxoglutarate, catalase, 30 °C; kcat unit is 10^-3 s^-1
T1 construct: gene FLS1; N-terminal MBP fusion (pMAL-c2X), E. coli BL21(DE3), amylose resin
Source text: HPLC product assay, Michaelis-Menten fit on RcFLS1

RcDFR = tested on: T2, RcDFR; assay: anthocyanidin formation after butanol-HCl, A530, Michaelis-Menten fit; type: biochemical, Rubus chingii; details: 1 mM NADPH, 0.1 M PBS pH 7.0, 30 °C, 1 h; kcat unit is 10^-3 s^-1
T2 construct: gene DFR; N-terminal MBP fusion (pMAL-c2X), E. coli BL21(DE3), amylose resin
Source text: anthocyanidin formation after butanol-HCl, A530, Michaelis-Menten fit on RcDFR

Km (RcFLS1)	Km (RcDFR)	Compound
56.9 ± 16.4 µM	125 ± 11.4 µM	O=C1c2c(O)cc(O)cc2O[C@H](c2ccc(O)c(O)c2)[C@H]1O [DHQ, Dihydroquercetin]
33.9 ± 8.66 µM	47.2 ± 5.79 µM	O=C1c2c(O)cc(O)cc2O[C@H](c2ccc(O)cc2)[C@H]1O [DHK, Dihydrokaempferol]
34.5 ± 9.34 µM	–	O=C1C[C@@H](c2ccc(O)c(O)c2)Oc2cc(O)cc(O)c21 [E, Eriodictyol]
43.6 ± 14.6 µM	–	O=C1C[C@@H](c2ccc(O)cc2)Oc2cc(O)cc(O)c21 [N, Naringenin]
